In US7943309B2, “HLA alleles associated with adverse drug reactions and methods for detecting such” (Pharmigene Inc., priority 2006, dated 2011):
Several values for one entry are separate records, joined by “and”; a condition that tells them apart may be missing. Equal entries are not always repeated. Each block holds one compound with its values, some of them ahead of it.

Experiments:
[1] = test system: CBZ-reactive T cells; assay: Cross-reactivity of CBZ-reactive T cells (interferon-γ ELISPOT); assay type: cell-based, human; conditions: T cells of HLA-B*1502 patients with CBZ-induced SJS/TEN, autologous B cells, 24 hours
From the text: Two patients having CBZ-induced SJS/TEN were recruited from Chang Gung Memorial Hospital. […] Genomic DNAs were extracted from the patients using […] DNA purification system (Gentra systems, Minnesota, USA). The HLA-B alleles were verified using sequence-specific oligonucleotide reverse line blots (DYNAL Biotech Ltd., Bromborough, U.K.).
Peripheral blood mononuclear cells (PBMCs) were isolated from the patients by Ficoll-Isopaque (Pharmacia Fine Chemicals, Piscataway, N.J.) density gradient centrifugation. A portion of the PBMCs were transformed by Epstein-Bar virus to establish autologous B-cell lines.
T cells reactive to CBZ were expanded as described below. PBMCs prepared from the patients were cultured in complete RPMI medium containing 10% heat-inactivated human serum, IL-2 (25 U/ml), and CBZ (25 μg/ml)(Sigma) in a 37° C., 5% CO2 incubator for 7 days. The T cells were then expanded by co-culturing with irradiated (50Gy) autologous B cells in the presence of CBZ for 10 days. After 2 cycles of the above co-culturing procedure, the CBZ-activated T cells were collected and subjected to ELISPOT assays (eBioscience).
The CBZ-reactive T cells were tested for their cross-reactivity to compounds e.g., CBZ 10, 11-epoxide, Oxcarbazepine (brand name: trileptal), Licarbazepine, and sunlindac. Briefly, T lymphocytes (5×10^3 cells) were mixed with autologous B cells (5×10^4 cells) in 200 μl RPMI medium containing 10% FBS in the presence or absence of a test compound. The cells were then incubated for 24 hours in the wells of an ELISPOT plate coated with anti-interferon γ antibodies (Millipore). After incubation, the supernatant of the cell culture was collected and interferon-γ contained therein was detected using antibody-mediated methods known in the art.

[2] = test system: HLA-B*1502; assay: Association of HLA-B*1502 with drug-induced SJS/TEN (HLA genotyping, case-control); design: species or system human; conditions: for number of HLA-B*1502-positive SJS/TEN patients who received the drug: among 17 carriers of 53 SJS/TEN patients who received other drugs
Experimental: 73 tegretol-tolerant patients were included as controls. […] All of these patients were subjected to genotyping. […] SSO (DYNAL Biotech Ltd.; Bromborough, UK). […] Marcel G. J. […] To some patients, SNP genotyping was performed using high throughput MALDI-TOF mass spectrometry. Briefly, primers and probes were designed using the Spectro[…] software (Sequenom, San Diego, Calif., USA). Multiplex polymerase chain reactions (PCR) were performed, the unincorporated dNTPs were dephosphorylated using the shrimp alkaline phosphatase (Hoffman-LaRoche, Basel, Switzerland), followed by primer extension. The purified primer extension reaction was spotted onto a 384-element silicon chip (SpectroCHIP, Sequenom), analyzed using a Bruker Biflex III MALDI-TOF SpectroREADER mass spectrometer (Sequenom) and spectra processed with […] (Sequenom).

[3] = test system: HLA-Cw*0801; assay: Marker of B*1502 ancestral haplotype and ADRs: HLA-Cw*0801
From the text: (§1) All of these patients were subjected to genotyping. Briefly, reagents for performing a reverse line blot assay using sequence-specific oligonucleotide (SSO) were purchased from DYNAL Biotech Ltd. (Bromborough, UK). PCR products were generated using biotinylated primers for the second and the third exons of the HLA class I or class II loci, and then hybridized to a line blot of SSO of probes immobilized on a nylon membrane. The presence of biotinylated PCR product bound to a specific probe is detected using streptavidin-horseradish peroxidase (HRP) and a chromogenic, soluble substrate to produce a blue “line” at the position of the positive probe. The probe reactivity pattern was interpreted by the genotyping software Dynal RELI™ SSO (DYNAL Biotech Ltd.; Bromborough, UK). Potential ambiguities were further resolved by sequence-based typing and DNA sequencing performed according to the IHWG Technical Manual (International Histocompatibility Working Group), see Genomic Analysis of the Human MHC DNABased Typing for HLA Alleles and Linked Polymorphisms. Marcel G. J. Tilanus, Editor in Chief, ISBN No. 0-945278-02-0.

[4] = test system: HLA-Cw*0806; assay: Marker of B*1502 ancestral haplotype and ADRs: HLA-Cw*0806
From the text: as §1

[5] = Clinical phenotype of drug-induced cutaneous ADR in individual patients; assay type: in vivo, human
Experimental: A total of 238 ADR patients (Mongoloids or Mongoloid descendents) were recruited either from Chang Gung Memorial Hospital or from several other medical centers throughout Taiwan for this study. Their drug-taking history including dosage and duration, and the phenotypes of ADRs were recorded. The diagnostic criteria of clinical morphology were defined according to Roujeau, J. Invest Dermatol., 102(6):28S-30S, 1994. […] SJS, overlap SJS-TEN and TEN are collectively referred to as SJS/TEN.

[6] = Onset of allopurinol-induced ADR symptoms; assay type: in vivo, human
[7] = test system: Cw*0302; conditions: number (%)
[8] = test system: A*3303; conditions: number (%)
[9] = test system: DRB1*0301; conditions: number (%)
[10] = test system: HLA-B*5801; assay: Association of HLA-B*5801 with allopurinol-induced severe ADRs (HSS, SJS, TEN); conditions: for B*5801 frequency, Allopurinol-tolerant: n = 98
[11] = test system: HLA-B*4601; assay: Association of HLA-B*4601 with CBZ-induced milder cutaneous ADRs (HLA genotyping); design: species or system human
From the text: 73 tegretol-tolerant patients were included as controls. Volunteers from the general population of Taiwanese (n=94; age range: 20 to 80 years) were also recruited.
All of these patients were subjected to genotyping.
In contrast, the allele was only found in 26% (19/73) of the CBZ-tolerant group.

[12] = test system: HLA-A*1101
From the text: as §1

[13] = test system: HLA-DRB1*1202
From the text: as §1

[14] = relative to the allopurinol-tolerant group

Compound: NC(=O)N1c2ccccc2C2OC2c2ccccc21 (stereo not drawn) [CBZ 10, 11-epoxide]
cross-reactivity of CBZ-reactive T cells to the compound [1]: cross-reactive

Compound: NC(=O)N1c2ccccc2CC(=O)c2ccccc21 [Oxcarbazepine, 5H-Dibenz[b,f]azepine-5-carboxamide, 10,11-dihydro-10-oxo]
cross-reactivity of CBZ-reactive T cells to the compound [1]: cross-reactive

Compound: CC1=C(CC(=O)O)c2cc(F)ccc2/C1=C\c1ccc([S+](C)[O-])cc1 (stereo not drawn) [Sulindac]
cross-reactivity of CBZ-reactive T cells to the compound [1]: not

number of HLA-B*1502-positive SJS/TEN patients who received the drug [2]: 2
HLA-B*1502 frequency, Allopurinol SJS/TEN ([2]; n = 17, carriers, number (%)): 1 (5.8%)
HLA-Cw*0801 frequency, Allopurinol SJS/TEN ([3]; n = 17, number (%)): 2 (11.7%)
HLA-Cw*0806 frequency, Allopurinol SJS/TEN ([4]; n = 17, number (%)): 0 (0%)
Phenotype ([5]; individual patient, cutaneous ADR to the suspected drug, listed as Allopurinol): SJS
Phenotype ([5]; individual patient, cutaneous ADR to the suspected drug, listed as alloprinol): SJS
second attack after re-exposure to allopurinol ([6]; 2 patients): ≤ 2 days
onset of HSS symptoms after start of allopurinol exposure ([6]; all of the 31 patients): ≤ 2 months
Cw*0302 frequency, Allopurinol-ADRs ([7]; n = 31): 29 (93.5%)
A*3303 frequency, Allopurinol-ADRs ([8]; n = 31): 20 (64.5%)
DRB1*0301 frequency, Allopurinol-ADRs ([9]; n = 31): 21 (67.7%)
sensitivity of HLA-B*5801 for allopurinol-induced severe ADRs [10]: 100%
specificity of HLA-B*5801 for allopurinol-induced severe ADRs [10]: 84%
Odds ratio (Allopurinol-ADRs/Normal), B*5801 ([10]; 31 ADR patients vs 93 normal subjects): 241
B*5801 frequency, Allopurinol-ADRs (severe ADRs) ([10]; n = 31, carriers, number (%)): 31 (100%)
Compound: Oc1ncnc2[nH]ncc12 [allopurinol, Allopurinol]
Phenotype ([5]; individual patient, cutaneous ADR to the suspected drug): SJS (11×) and SJS and vasculitis on leg and SJS, and lichenoid and TEN
Cw*0302 frequency, Allopurinol-tolerant ([7]; n = 98): 15 (15.3%)
A*3303 frequency, Allopurinol-tolerant ([8]; n = 98): 18 (18.4%)
DRB1*0301 frequency, Allopurinol-tolerant ([9]; n = 98): 14 (14.3%)
Odds ratio (Allopurinol-ADRs/Tolerant), B*5801 ([10]; 31 ADR patients vs 98 tolerant patients): 315
B*5801 frequency, Allopurinol-tolerant ([10]; carriers, number (%)): 16 (16.3%)
B*5801 frequency, Allopurinol-tolerant ([10]; carriers, number (%), listed as Allopurinol): 16 (16.3%)^1
negative predictive value, absence of HLA-B*5801, allopurinol-induced ADRs [10, 14]: 100%
positive predictive value, presence of HLA-B*5801, allopurinol-induced ADRs [10, 14]: 66%

number of HLA-B*1502-positive SJS/TEN patients who received the drug [2]: 2
Compound: CC1(C)S[C@@H]2[C@H](NC(=O)[C@H](N)c3ccc(O)cc3)C(=O)N2[C@H]1C(=O)O [amoxicillin]

Compound: (S)-(−)-10-acetoxy-10,11- dihydro-5H-dibenzo/b,f/ azepine-5-carboxamide [Licarbazepine]
cross-reactivity of CBZ-reactive T cells to the compound [1]: cross-reactive

Compound: carbamazepine [CBZ]
HLA-B*1502 frequency, CBZ-tolerant patients ([2]; N = 73, carriers, number (%)): 3 (4.1%)
HLA-B*1502 frequency, patients with CBZ-induced SJS/TEN ([2]; Taiwanese patients, N = 42, carriers, number (%)): 42 (100%)
HLA-B*1502 frequency, CBZ Milder ADRs ([2]; n = 16, carriers, number (%)): 0 (0%)
HLA-B*1502 carriers among SJS/TEN patients who received the drug ([2]; text of Example 3): 100%
HLA-B*1502 carriers in the drug-tolerant group ([2]; text of Example 3): 4.1%
negative predictive value of B*1502 for CBZ-induced SJS/TEN ([2]; tolerant group as control): 100%
positive predictive value of B*1502 for CBZ-induced SJS/TEN ([2]; tolerant group as control): 96.0%
sensitivity of B*1502 for CBZ-induced SJS/TEN ([2]; tolerant group as control): 100%
specificity of B*1502 for CBZ-induced SJS/TEN ([2]; tolerant group as control): 95.89%
Odds Ratio, B*1502, CBZ-induced SJS/TEN ([2]; vs Controls1: patients who had milder ADRs other than SJS, N = 142): 1194.47
Odds Ratio, B*1502, CBZ-induced SJS/TEN ([2]; vs Controls2: general Taiwanese population, N = 94): 1383.2
Odds Ratio, B*1502, CBZ-induced SJS/TEN ([2]; vs Controls3: CBZ-tolerant patients, N = 73): 1712
HLA-B*4601 carriers among patients with milder reactions to CBZ ([11]; 10 out of 16): 62.5%
HLA-B*4601 carriers in the CBZ-tolerant group ([11]; 19/73): 26%
odds ratio, B*4601, CBZ-induced milder cutaneous ADRs ([11]; vs CBZ-tolerant group): 4.73
HLA-Cw*0801 frequency, CBZ SJS/TEN [3]: 38 (90%)
HLA-Cw*0801 frequency, CBZ Tolerant [3]: 10 (13.7%)
HLA-Cw*0806 frequency, CBZ SJS/TEN [4]: 3 (7.1%)
HLA-Cw*0806 frequency, CBZ Tolerant [4]: 0 (0%)
HLA-A*1101 frequency, CBZ SJS/TEN [12]: 31 (73.8%)
HLA-DRB1*1202 frequency, CBZ SJS/TEN [13]: 35 (83.3%)
Phenotype ([5]; human, in vivo): SJS
